According to patent US8420679B2, “Aminothiazole derivatives and their use as CRF receptor ligands” (Sanofi, priority 1999, dated 2013):
Where a name gives a salt, the structure may show the parent alone.

melting point [°C] | SMILES
70 | C=CCN(c1nc(-c2ccc(OC)cc2Cl)c(C)s1)C(COC)c1ccccc1 (centres unmarked) (as salt: hydrochloride) (hydrate or solvate) [Example 23, Allyl-[4-(2-chloro-4-methoxyphenyl)-5-methylthiazol-2-yl]-(2-methoxy-1-phenylethyl)amine]
70 | CC#CCN(c1nc(-c2ccc(OC)cc2Cl)c(C)s1)C(COC)c1ccccc1 (centres unmarked) (as salt: hydrochloride) (hydrate or solvate) [Example 24, But-2-ynyl-[4-(2-chloro-4-methoxyphenyl)-5-methylthiazol-2-yl]-[2-methoxy-1-phenylethyl]amine]
